In PubChem BioAssay (NCI):
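1) Cells in 96-well plates. 2) Compound, 48 h, 5 concentrations. 3) Linear interpolation between surrounding doses. 4) Unreached endpoint = highest concentration. TGI is the concentration that stops growth completely.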

Legend:
Test in all cases: growth of human tumour cells (NCI), 48 h
HOP-62 NSCLC = tested on: HOP-62 NSCLC
KM12 colon = tested on: KM12 colon
UACC-257 melanoma = tested on: UACC-257 melanoma
HOP-92 NSCLC = tested on: HOP-92 NSCLC
SK-MEL-2 melanoma = tested on: SK-MEL-2 melanoma
SF-295 CNS = tested on: SF-295 CNS
OVCAR-4 ovarian = tested on: OVCAR-4 ovarian
DMS 273 small cell lung = tested on: DMS 273 small cell lung
DLD-1 colon = tested on: DLD-1 colon
U251 CNS = tested on: U251 CNS
M19-MEL melanoma = tested on: M19-MEL melanoma

## N#C/C(=C\c1cc(O)cc(O)c1)C(N)=O
HOP-62 NSCLC
  TGI: > 100 µM
KM12 colon
  TGI: > 100 µM
UACC-257 melanoma
  TGI: > 100 µM
HOP-92 NSCLC
  TGI: > 100 µM
SK-MEL-2 melanoma
  TGI: > 100 µM
SF-295 CNS
  TGI: > 100 µM
OVCAR-4 ovarian
  TGI: > 100 µM
DMS 273 small cell lung
  TGI: > 100 µM
DLD-1 colon
  TGI: > 100 µM
U251 CNS
  TGI: > 100 µM
M19-MEL melanoma
  TGI: > 100 µM

## COc1ccc(C(c2ccccc2)(c2ccc(OC)cc2)N2C(=O)NC3C(CCCCC(=O)NCCCCCCOP(OCCC#N)N(C(C)C)C(C)C)SCC32)cc1 (stereo not drawn)
HOP-62 NSCLC
  TGI: 36.6 µM
KM12 colon
  TGI: 34 µM
UACC-257 melanoma
  TGI: 42.6 µM
HOP-92 NSCLC
  TGI: 35 µM
SK-MEL-2 melanoma
  TGI: 24.9 µM
SF-295 CNS
  TGI: 31.2 µM
OVCAR-4 ovarian
  TGI: 40 µM
DMS 273 small cell lung
  TGI: 25.3 µM
DLD-1 colon
  TGI: 29.4 µM
U251 CNS
  TGI: 28.5 µM
M19-MEL melanoma
  TGI: 33.1 µM

## O=C(C(=O)c1cc2ccccc2[nH]1)c1cc2ccccc2[nH]1
HOP-62 NSCLC
  TGI: > 347 µM
KM12 colon
  TGI: > 347 µM
UACC-257 melanoma
  TGI: > 347 µM
HOP-92 NSCLC
  TGI: > 347 µM
SK-MEL-2 melanoma
  TGI: > 347 µM
SF-295 CNS
  TGI: > 347 µM
OVCAR-4 ovarian
  TGI: 299 µM
DMS 273 small cell lung
  TGI: > 347 µM
DLD-1 colon
  TGI: > 347 µM
U251 CNS
  TGI: > 347 µM
M19-MEL melanoma
  TGI: > 347 µM

## O=C1[C@H]2ON(c3ccccc3)C(c3ccc([N+](=O)[O-])cc3)[C@H]2C(=O)N1c1ccc(Cc2ccc(N3C(=O)[C@@H]4ON(c5ccccc5)C(c5ccc([N+](=O)[O-])cc5)[C@@H]4C3=O)cc2)cc1 (stereo partly drawn)
HOP-62 NSCLC
  TGI: > 100 µM
KM12 colon
  TGI: > 100 µM
UACC-257 melanoma
  TGI: > 100 µM
HOP-92 NSCLC
  TGI: 99 µM
SK-MEL-2 melanoma
  TGI: > 100 µM
SF-295 CNS
  TGI: > 100 µM
OVCAR-4 ovarian
  TGI: > 100 µM
DMS 273 small cell lung
  TGI: > 100 µM
DLD-1 colon
  TGI: > 100 µM
U251 CNS
  TGI: > 100 µM
M19-MEL melanoma
  TGI: > 100 µM

## CCC[C@H]1O[C@@H]2CC(=O)O[C@@H]2C2=C1C(=O)C=CC2=O
HOP-62 NSCLC
  TGI: > 95 µM
KM12 colon
  TGI: 48.3 µM
UACC-257 melanoma
  TGI: 34.8 µM
HOP-92 NSCLC
  TGI: 8.31 µM
SK-MEL-2 melanoma
  TGI: 38.6 µM
SF-295 CNS
  TGI: 55.8 µM
OVCAR-4 ovarian
  TGI: 29.9 µM
DMS 273 small cell lung
  TGI: 19.5 µM
DLD-1 colon
  TGI: 35.8 µM
U251 CNS
  TGI: > 53.7 µM
M19-MEL melanoma
  TGI: 41.7 µM

## C=C(C)[C@H]1CC[C@@]2(C)C(C1)[C@H](C)CC[C@@H]2O (stereo partly drawn)
HOP-62 NSCLC
  TGI: > 100 µM
KM12 colon
  TGI: > 100 µM
UACC-257 melanoma
  TGI: > 100 µM
HOP-92 NSCLC
  TGI: > 100 µM
SK-MEL-2 melanoma
  TGI: > 100 µM
SF-295 CNS
  TGI: > 100 µM
OVCAR-4 ovarian
  TGI: > 100 µM
DMS 273 small cell lung
  TGI: > 100 µM
DLD-1 colon
  TGI: > 100 µM
U251 CNS
  TGI: > 100 µM
M19-MEL melanoma
  TGI: > 100 µM

## CC(C)(O)C(O)COc1c2c(cc3oc(=O)ccc13)OCO2 (stereo not drawn)
HOP-62 NSCLC
  TGI: > 100 µM
KM12 colon
  TGI: > 100 µM
UACC-257 melanoma
  TGI: > 100 µM
HOP-92 NSCLC
  TGI: > 100 µM
SK-MEL-2 melanoma
  TGI: > 100 µM
SF-295 CNS
  TGI: > 100 µM
OVCAR-4 ovarian
  TGI: > 100 µM
DMS 273 small cell lung
  TGI: > 100 µM
DLD-1 colon
  TGI: > 100 µM
U251 CNS
  TGI: > 100 µM
M19-MEL melanoma
  TGI: > 100 µM

## C=C[C@@H](C)[C@]1(C(=O)OC)CCCC12OCCO2
HOP-62 NSCLC
  TGI: > 100 µM
KM12 colon
  TGI: > 100 µM
UACC-257 melanoma
  TGI: > 100 µM
HOP-92 NSCLC
  TGI: > 100 µM
SK-MEL-2 melanoma
  TGI: > 100 µM
SF-295 CNS
  TGI: > 100 µM
OVCAR-4 ovarian
  TGI: > 100 µM
DMS 273 small cell lung
  TGI: > 100 µM
DLD-1 colon
  TGI: > 100 µM
U251 CNS
  TGI: > 100 µM
M19-MEL melanoma
  TGI: > 100 µM
